# Reference: PMC10090446, “Population pharmacokinetic analysis and dosing optimization of polymyxin B in critically ill patients” (Frontiers in Pharmacology, 2023)
# Like-named read-outs stand apart in the source and are kept apart here. Positions of bridges follow the written chain, without caps; N, C: chain ends. Non-standard residues stand in square brackets, D forms with d. Residues, ends and D or L forms follow the SMILES beside them. *: point of attachment. X1 = CC[C@H](C)CCCCC(=O)*; Dab = NCC[C@H](N)C(=O)O
# Assays:
# [1] = Steady-state plasma concentrations of polymyxin B (total of B1, B2, B1-Ile) by LC-MS/MS; assay type: in vivo; conditions: human, iv, read-out: OUT (observed polymyxin B plasma concentration)
# Excerpt: (§1) We gather data from critically ill patients (≥18 years old) who were given intravenous drip polymyxin B treatment with blood concentration monitoring at the hospital from November 2021 to September 2022. The attending physician decided to administer polymyxin B. At the same time, patients who received continuous renal replacement therapy (CRRT) (n = 10) or extracorporeal membrane oxygenation (ECMO) (n = 2) at the time of blood collection were excluded. Patients’ information, including gender, age, WT, serum creatinine (Scr), CCR, ALB, APACHE-II, infection diagnosis, and pathogenic bacteria, were obtained from the electronic system for medical records. CCR was generated by adopting the Cockcroft—Gault equation with WT and age ([Cucci et al., 2022]). The Ethical Committees of the Second Affiliated Hospital of the South China University of Technology authorized the study (K-2022-020-01).
# (§2) Patients were treated with polymyxin B, and plasma samples were collected ≥ 48 h after the treatment. Each patient contributed clinical samples, of which 37.5% (n = 24) were sampled with troughs (within 1 h before administration), 35.9% (n = 23) were sampled with peaks (within 1 h after the end of the infusion), and 26.6% (n = 17) were sampled at 6-8 h after the infusion. The dosing regimens of polymyxin B were a loading dose of 100 mg–150 mg and a maintenance dose of 50 mg–75 mg q12h, and the infusion duration was about 1–2 h. In preparation for analysis, samples were centrifuged for 10 min at 3000 r min^-1 after collection, and the upper plasma after centrifugation was stored at −20°C.
# (§3) According to previous studies, total polymyxin B1, polymyxin B2, and polymyxin B1-Ile concentrations in human blood plasma were quantified using LC-MS/MS ([Meng et al., 2016]; [Hee et al., 2017]). The standard used in our experiments was the USP standard with the batch number of R104F0. The chromatographic column was the Kinetex C18 (3 μm × 2.1 mm×100 mm. Phenomenex). A: B mobile phase was 0.1% formic acid to acetonitrile. With changes in the linear velocity ratio, gradient elution was as follows: 15% −15% B, 0–2.0 min; 15%–10% B, 2.01–4.0 min; 10%–30% B, 4.01–5.0 min; 15% B, 5.01 min; and 15%–15% B, 5.02–10 min. The flow rate was constrained to 0.8 mL min^-1, and the column temperature was set to 40°C. The parent/daughter ion mass ratios used in the mass spectrometry were m/z 602.6/241.2 (polymyxin B1 and B1-Ile) and m/z 595.6/202.1 (polymyxin B2). Plasma samples (100 μL) were collected from centrifuged blood samples, mixed with 500 μL precipitant (acetonitrile with 6.67% formic acid) and vortexed well for 1 min. The lower limit of quantification (LLOQ) of the bioanalytical method used for quantifying polymyxin B1, B2, and B1-Ile concentrations was 0.19, 0.02 and 0.02 mg L^-1, respectively. The linear relationships of polymyxin B1, B2, and B1-Ile concentrations in the range of 0.19–24.13 mg L^-1, 0.02–2.7 mg L^-1 and 0.02–2.38 mg L^-1 were considered good (R^2 = 0.99677, R^2 = 0.99656, R^2 = 0.99484) and the accuracy was within 95.3%–105.3%, 92.2%–104.8%, and 95.8%–105.4%. […] Finally, 200 μL of the supernatant from the centrifugation of the combination at 14,000 r min^-1 for 10 min was employed to measure the amounts of polymyxin B.
# [2] = Population pharmacokinetic (PPK) model, non-parametric adaptive grid (Pmetrics), critically ill patients; assay type: in vivo, human; conditions: for clearance: human
# Excerpt: as §1, §2, §3
# In order to analyze the total concentrations of polymyxin B, Pmetrics version 1.9.7 (Laboratory of Applied Pharmacokinetics and Bioinformatics, Los Angeles, CA) was used by R version 4.1.3 ([Neely et al., 2012]). PK parameters were evaluated by a one-compartment model and a two-compartment model. The multiplicative error model (SD ×gamma), which requires the observation concentration values to be weighted by the reciprocal of the error, was used to calculate the error structure model. Gamma is the process noise that results from incorrectly specified sampling time, dosage, etc. […]
# [3] = data splitting, 20% of the data
# [4] = data splitting, 80% of the data
# [5] = final model 6, bootstrap, median
# [6] = final model 6, full data set, 22 critically ill patients, iv, mean
# [7] = final model 6, full data set, median
smiles,measurement,setting,value
CC[C@H](C)CCCCC(=O)N[C@@H](CCN)C(=O)N[C@H](C(=O)N[C@@H](CCN)C(=O)N[C@H]1CCNC(=O)[C@H]([C@@H](C)O)NC(=O)[C@H](CCN)NC(=O)[C@H](CCN)NC(=O)[C@H](CC(C)C)NC(=O)[C@@H](Cc2ccccc2)NC(=O)[C@H](CCN)NC1=O)[C@@H](C)O [polymyxin B] (X1-[Dab]T[Dab][Dab][Dab][dF]L[Dab][Dab]T; lactam 4-C),level at 84.42 h,"[1]; patient ID 10, TIME 84.42, DOSE 100 at 0 then 50 every 12 to 72, DUR 1, WT 62, CCR 72.12, ALB 33.9, APACHE 17, single sample",3890 ng/mL
same,level at 98 h,"[1]; patient ID 11, TIME 98, DOSE 100 at 0 then 50 every 12 to 96, DUR 2, WT 55, CCR 67.29, ALB 30.9, APACHE 46, single sample",5200 ng/mL
same,level at 102 h,"[1]; patient ID 11, TIME 102, DOSE 100 at 0 then 50 every 12 to 96, DUR 2, WT 55, CCR 67.29, ALB 30.9, APACHE 46, single sample",2530 ng/mL
same,level at 105.5 h,"[1]; patient ID 11, TIME 105.5, DOSE 100 at 0 then 50 every 12 to 96, DUR 2, WT 55, CCR 67.29, ALB 30.9, APACHE 46, single sample",2180 ng/mL
same,level at 145 h,"[1]; patient ID 13, TIME 145, DOSE 75 at 0 then 50 every 12 from 12 (ADDL 12), DUR 1, WT 57, CCR 41.39, ALB 24.4, APACHE 18, single measurement",2590 ng/mL
same,level at 150 h,"[1]; patient ID 13, TIME 150, DOSE 75 at 0 then 50 every 12 from 12 (ADDL 12), DUR 1, WT 57, CCR 41.39, ALB 24.4, APACHE 18, single measurement",1830 ng/mL
same,level at 156 h,"[1]; patient ID 13, TIME 156, DOSE 75 at 0 then 50 every 12 from 12 (ADDL 12), DUR 1, WT 57, CCR 41.39, ALB 24.4, APACHE 18, single measurement",1090 ng/mL
same,level at 50.5 h,"[1]; patient ID 14, TIME 50.5, DOSE 100 at 0, 50 at 12, 24, 36, 50.8, DUR 1, WT 60, CCR 111.4, ALB 25.4, APACHE 25, single measurement",1140 ng/mL
same,level at 51.8 h,"[1]; patient ID 14, TIME 51.8, DOSE 100 at 0, 50 at 12, 24, 36, 50.8, DUR 1, WT 60, CCR 111.4, ALB 25.4, APACHE 25, single measurement",4060 ng/mL
same,level at 57.8 h,"[1]; patient ID 14, TIME 57.8, DOSE 100 at 0, 50 at 12, 24, 36, 50.8, DUR 1, WT 60, CCR 111.4, ALB 25.4, APACHE 25, single measurement",1820 ng/mL
same,level at 72.66 h,"[1]; patient ID 15, TIME 72.66, DOSE 100 at 0, 50 at 12, 100 at 24, 75 at 36, 48, 60, WT 50, CCR 35.85, ALB 29.5, APACHE 39, single measurement",3110 ng/mL
same,level at 54.67 h,"[1]; patient ID 19, TIME 54.67, DOSE 100 at 0 then 50 every 12 from 12 (ADDL 3), DUR 1, WT 60, CCR 35.69, ALB 25.6, APACHE 19, single measurement",1860 ng/mL
same,level at 60 h,"[1]; patient ID 19, TIME 60, DOSE 100 at 0 then 50 every 12 from 12 (ADDL 3), DUR 1, WT 60, CCR 35.69, ALB 25.6, APACHE 19, single measurement",1300 ng/mL
same,level at 73.45 h,"[1]; patient ID 20, TIME 73.45, DOSE 100 at 0 then 50 every 12 from 12 (ADDL 6), DUR 1.45, WT 75, CCR 84.86, ALB 29.5, APACHE 18, single measurement",4270 ng/mL
same,level at 77.45 h,"[1]; patient ID 20, TIME 77.45, DOSE 100 at 0 then 50 every 12 from 12 (ADDL 6), DUR 1.45, WT 75, CCR 84.86, ALB 29.5, APACHE 18, single measurement",2700 ng/mL
same,level at 84 h,"[1]; patient ID 20, TIME 84, DOSE 100 at 0 then 50 every 12 from 12 (ADDL 6), DUR 1.45, WT 75, CCR 84.86, ALB 29.5, APACHE 18, single measurement",1960 ng/mL
same,level at 50 h,"[1]; patient ID 21, TIME 50, DOSE 150 at 0 then 75 every 12 from 12 (ADDL 4), DUR 2, WT 70, CCR 56.54, ALB 38.1, APACHE 40, single measurement",7030 ng/mL
same,level at 54 h,"[1]; patient ID 21, TIME 54, DOSE 150 at 0 then 75 every 12 from 12 (ADDL 4), DUR 2, WT 70, CCR 56.54, ALB 38.1, APACHE 40, single measurement",3830 ng/mL
same,"Q, mean value",[2]; [3],2.56 L/h
same,"Vc, mean value",[2]; [3],13.58 L
same,"Vp, mean value",[2]; [3],64.60 L
same,"Q, mean value",[2]; [4],3.44 L/h
same,"Vc, mean value",[2]; [4],17.82 L
same,"Vp, mean value",[2]; [4],40.26 L
same,"CL, bootstrap median",[2]; [5],1.22 L/h
same,"Q, bootstrap median",[2]; [5],2.31 L/h
same,"Vc, bootstrap median",[2]; [5],17.15 L
same,"Vp, bootstrap median",[2]; [5],66.34 L
same,"Q, mean",[2]; [6],3.04 L/h
same,"Vc, mean",[2]; [6],16.64 ± 12.74 L
same,"Vp, mean",[2]; [6],66.20 L
same,"Q, median",[2]; [7],2.34 L/h
same,"Vc, median",[2]; [7],13.52 L
same,"Vp, median",[2]; [7],76.53 L
same,clearance,"[2]; plasma, iv, data splitting, 20% of the data, read-out: CL, mean value (converted)",21.8 mL/min
same,clearance,"[2]; plasma, iv, data splitting, 80% of the data, read-out: CL, mean value (converted)",22.5 mL/min
same,clearance,"[2]; plasma, iv, final model 6, full data set, 22 critically ill patients, iv, median, read-out: CL, median (converted)",20.3 mL/min
same,clearance,"[2]; final model 6 (two-compartment, covariates age and ALB), full data set, 22 critically ill patients, 64 samples, iv infusion, steady state, total plasma concentration, LC-MS/MS, NPAG, mean, read-out: CL, mean (converted)",20.7 mL/min
